According to PubChem BioAssay (NCI):
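Tested at 5 concentrations; 48 h exposure; 96-well plates; endpoints linearly interpolated, else capped at highest concentration. TGI: total growth inhibition.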

How the values were obtained:
Test in all cases: growth of human tumour cells (NCI), 48 h
[1] = tested on: SF-539 CNS
[2] = tested on: MOLT-4 leukemia
[3] = tested on: HOP-92 NSCLC
[4] = tested on: LOX IMVI melanoma
[5] = tested on: IGROV1 ovarian
[6] = tested on: SK-OV-3 ovarian
[7] = tested on: SNB-19 CNS
[8] = tested on: MDA-MB-231 breast
[9] = tested on: UACC-62 melanoma
[10] = tested on: NCI-H522 lung
[11] = tested on: SK-MEL-28 melanoma
[12] = tested on: HCC-2998 colon
[13] = tested on: HOP-62 NSCLC
[14] = tested on: SW-620 colon
[15] = tested on: OVCAR-3 ovarian
[16] = tested on: MDA-MB-435
[17] = tested on: BT-549 breast
[18] = tested on: UO-31 renal
[19] = tested on: A498 renal
[20] = tested on: RXF 393 renal
[21] = tested on: NCI/ADR-RES ovarian
[22] = tested on: DU-145 prostate
[23] = tested on: NCI-H226 lung
[24] = tested on: TK-10 renal
[25] = tested on: KM12 colon
[26] = tested on: SN12C renal
[27] = tested on: SR leukemia
[28] = tested on: MDA-N
[29] = tested on: HCT-15 colon
[30] = tested on: NCI-H460 lung
[31] = tested on: M14 melanoma
[32] = tested on: OVCAR-4 ovarian
[33] = tested on: MCF7 breast
[34] = tested on: SK-MEL-5 melanoma
[35] = tested on: SK-MEL-2 melanoma
[36] = tested on: A549 NSCLC
[37] = tested on: UACC-257 melanoma
[38] = tested on: COLO 205 colon
[39] = tested on: OVCAR-8 ovarian
[40] = tested on: T-47D breast
[41] = tested on: RPMI-8226 leukemia
[42] = tested on: HT29 colon
[43] = tested on: CAKI-1 renal
[44] = tested on: SF-295 CNS
[45] = tested on: EKVX NSCLC
[46] = tested on: K-562 leukemia
[47] = tested on: U251 CNS
[48] = tested on: 786-0 renal
[49] = tested on: SNB-75 CNS
[50] = tested on: SF-268 CNS
[51] = tested on: OVCAR-5 ovarian
[52] = tested on: HS 578T breast
[53] = tested on: ACHN renal
[54] = tested on: NCI-H23 lung
[55] = tested on: CCRF-CEM leukemia
[56] = tested on: HCT-116 colon
[57] = tested on: MALME-3M melanoma
[58] = tested on: PC-3 prostate
[59] = tested on: HL-60(TB) leukemia

Q: `CC(=O)OC1C(C)OC(OC2C[C@](O)(C(C)=O)Cc3c(O)c4c(c(O)c32)C(=O)c2ccccc2C4=O)C(F)C1OC(C)=O` (some centres undefined) was tested. Which TGI [1] did it give?
A: 1030 nM

Q: And the TGI [2]?
A: 0.112 µM

Q: What about the TGI [3] of the same compound?
A: 6.52 µM

Q: What about the TGI [4] of the same compound?
A: 3.65 µM

Q: What about the TGI [5] of the same compound?
A: 9.34 µM

Q: And the TGI [6]?
A: 22.1 µM

Q: And the TGI [7]?
A: 4.99 µM

Q: And the TGI [8]?
A: 10.7 µM

Q: What about the TGI [9] of the same compound?
A: 2810 nM

Q: And the TGI [10]?
A: 4.29 µM

Q: What about the TGI [11] of the same compound?
A: > 31.3 µM

Q: What about the TGI [12] of the same compound?
A: 16.6 µM

Q: What about the TGI [13] of the same compound?
A: 13.8 µM

Q: And the TGI [14]?
A: > 100 µM

Q: And the TGI [15]?
A: 9.9 µM

Q: And the TGI [16]?
A: 23.5 µM

Q: And the TGI [17]?
A: 33.2 µM

Q: What about the TGI [18] of the same compound?
A: 567 nM

Q: What about the TGI [19] of the same compound?
A: 2870 nM

Q: What about the TGI [20] of the same compound?
A: 18.9 µM

Q: What about the TGI [21] of the same compound?
A: 9.46 µM

Q: What about the TGI [22] of the same compound?
A: 4.59 µM

Q: What about the TGI [23] of the same compound?
A: 2860 nM

Q: What about the TGI [24] of the same compound?
A: 4.29 µM

Q: And the TGI [25]?
A: > 100 µM

Q: What about the TGI [26] of the same compound?
A: 7.76 µM

Q: And the TGI [27]?
A: 0.887 µM

Q: What about the TGI [28] of the same compound?
A: > 100 µM

Q: And the TGI [29]?
A: 6.34 µM

Q: And the TGI [30]?
A: 1530 nM

Q: What about the TGI [31] of the same compound?
A: 10.7 µM

Q: And the TGI [32]?
A: 41.8 µM

Q: And the TGI [33]?
A: > 20.2 µM

Q: And the TGI [34]?
A: 2180 nM

Q: And the TGI [35]?
A: 11.3 µM

Q: And the TGI [36]?
A: 2170 nM

Q: What about the TGI [37] of the same compound?
A: 9.02 µM

Q: What about the TGI [38] of the same compound?
A: > 100 µM

Q: And the TGI [39]?
A: 10.7 µM

Q: And the TGI [40]?
A: 41.2 µM

Q: What about the TGI [41] of the same compound?
A: 2140 nM

Q: What about the TGI [42] of the same compound?
A: > 100 µM

Q: What about the TGI [43] of the same compound?
A: 1390 nM

Q: What about the TGI [44] of the same compound?
A: 1470 nM

Q: What about the TGI [45] of the same compound?
A: 99.2 µM

Q: What about the TGI [46] of the same compound?
A: > 100 µM

Q: What about the TGI [47] of the same compound?
A: 3.65 µM

Q: And the TGI [48]?
A: 2360 nM

Q: What about the TGI [49] of the same compound?
A: 4.33 µM

Q: What about the TGI [50] of the same compound?
A: 24.6 µM

Q: What about the TGI [51] of the same compound?
A: 5.45 µM

Q: And the TGI [52]?
A: 9.89 µM

Q: And the TGI [53]?
A: 704 nM

Q: And the TGI [54]?
A: 1810 nM

Q: What about the TGI [55] of the same compound?
A: 1.51 µM

Q: And the TGI [56]?
A: 2840 nM

Q: What about the TGI [57] of the same compound?
A: 4.08 µM

Q: And the TGI [58]?
A: 22.4 µM

Q: Which TGI [1] does the source give for `O=C1Cc2c([nH]c3c(Br)cccc23)-c2ccccc2N1` here?
A: > 100000 nM

Q: And the TGI [2]?
A: 43.6 µM

Q: What about the TGI [4] of the same compound?
A: > 100 µM

Q: What about the TGI [5] of the same compound?
A: > 100 µM

Q: What about the TGI [6] of the same compound?
A: > 100 µM

Q: What about the TGI [7] of the same compound?
A: > 100 µM

Q: What about the TGI [8] of the same compound?
A: > 100 µM

Q: And the TGI [9]?
A: > 100000 nM

Q: And the TGI [12]?
A: > 100 µM

Q: And the TGI [13]?
A: > 100 µM

Q: And the TGI [14]?
A: > 100 µM

Q: What about the TGI [15] of the same compound?
A: > 100 µM

Q: And the TGI [16]?
A: > 100 µM

Q: And the TGI [17]?
A: > 100 µM

Q: What about the TGI [18] of the same compound?
A: > 100000 nM

Q: What about the TGI [19] of the same compound?
A: > 100000 nM

Q: And the TGI [21]?
A: > 100 µM

Q: And the TGI [22]?
A: > 100 µM

Q: And the TGI [23]?
A: > 100000 nM

Q: What about the TGI [25] of the same compound?
A: > 100 µM

Q: And the TGI [26]?
A: > 100 µM

Q: What about the TGI [27] of the same compound?
A: 55.3 µM

Q: What about the TGI [28] of the same compound?
A: > 100 µM

Q: And the TGI [29]?
A: > 100 µM

Q: And the TGI [30]?
A: > 100000 nM

Q: What about the TGI [31] of the same compound?
A: > 100 µM

Q: What about the TGI [33] of the same compound?
A: > 100 µM

Q: And the TGI [34]?
A: > 100000 nM

Q: And the TGI [35]?
A: > 100 µM

Q: And the TGI [36]?
A: > 100000 nM

Q: What about the TGI [37] of the same compound?
A: > 100 µM

Q: And the TGI [38]?
A: > 100 µM

Q: What about the TGI [39] of the same compound?
A: > 100 µM

Q: What about the TGI [40] of the same compound?
A: > 100 µM

Q: What about the TGI [41] of the same compound?
A: > 100000 nM

Q: What about the TGI [42] of the same compound?
A: > 100 µM

Q: What about the TGI [44] of the same compound?
A: > 100000 nM

Q: What about the TGI [45] of the same compound?
A: > 100 µM

Q: What about the TGI [46] of the same compound?
A: 56.5 µM

Q: What about the TGI [47] of the same compound?
A: > 100 µM

Q: And the TGI [48]?
A: > 100000 nM

Q: What about the TGI [49] of the same compound?
A: > 100 µM

Q: What about the TGI [50] of the same compound?
A: > 100 µM

Q: And the TGI [51]?
A: > 100 µM

Q: What about the TGI [59] of the same compound?
A: 73.8 µM

Q: What about the TGI [52] of the same compound?
A: > 100 µM

Q: And the TGI [53]?
A: > 100000 nM

Q: What about the TGI [54] of the same compound?
A: > 100000 nM

Q: And the TGI [55]?
A: 35.6 µM

Q: What about the TGI [57] of the same compound?
A: > 100 µM

Q: And the TGI [58]?
A: > 100 µM
